The results in this text go back to BindingDB's records for doi:10.1021/jm049496b (University of Colorado, 2004).

The target of experiment [1] is T1, 7-dehydrocholesterol reductase (Homo sapiens, UniProt Q9UBM7).
T1 sequence (Q9UBM7 whole entry): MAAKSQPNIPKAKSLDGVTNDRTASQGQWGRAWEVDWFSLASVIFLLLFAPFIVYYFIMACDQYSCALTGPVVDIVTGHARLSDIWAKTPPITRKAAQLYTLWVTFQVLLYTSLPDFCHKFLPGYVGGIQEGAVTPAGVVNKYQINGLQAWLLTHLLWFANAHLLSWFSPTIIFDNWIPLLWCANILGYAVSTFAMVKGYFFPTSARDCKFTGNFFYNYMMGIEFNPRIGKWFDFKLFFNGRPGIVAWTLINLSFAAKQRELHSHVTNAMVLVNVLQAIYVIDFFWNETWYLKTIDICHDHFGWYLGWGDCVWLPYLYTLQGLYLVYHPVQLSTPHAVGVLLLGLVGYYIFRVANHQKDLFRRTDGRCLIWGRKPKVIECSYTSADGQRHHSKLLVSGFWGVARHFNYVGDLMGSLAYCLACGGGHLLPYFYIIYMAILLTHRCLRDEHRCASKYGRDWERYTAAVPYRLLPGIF
Put plainly: Growth inhibition of MDA-MB-435 cells containing antiestrogen binding sites.

The target of experiment [2] is T1, 7-dehydrocholesterol reductase. As to the kind of experiment: Growth inhibition of MCF7 cells expressing ER and antiestrogen binding sites.
For experiment [3] the target is unchanged. As to the kind of experiment: Growth inhibition of MDA-MB-231 cells containing antiestrogen binding sites.
Experiment [4] shares this target. Put plainly: Growth inhibition of multidrug resistant MCF7/Adr cells containing antiestrogen binding sites.

Structures are written as SMILES.

In the case of `CC/C(=C(/c1ccc(O)cc1)c1ccc(OCCN(C)CCOCCOCCO/N=C/c2ccc(O)c(C(=O)NCN[C@H]3C[C@H](O[C@H]4C[C@](O)(C(=O)CO)Cc5c(O)c6c(c(O)c54)C(=O)c4c(OC)cccc4C6=O)O[C@@H](C)[C@H]3O)c2)cc1)c1ccccc1`, the IC50 (as a rule, the point on the concentration scale where inhibition reaches its midpoint) came to 40 nM in experiment [1], 30 nM in experiment [2], 30 nM in experiment [3] and 60 nM in experiment [4].
As to `COc1cccc2c1C(=O)c1c(O)c3c(c(O)c1C2=O)C[C@@](O)(C(=O)CO)C[C@@H]3O[C@H]1C[C@H](NCNC(=O)c2ccccc2O)[C@H](O)[C@H](C)O1`, the IC50 in experiment [1] worked out at 50 nM; in experiment [2] it was 70 nM; in experiment [3], 80 nM; in experiment [4] it was 2000 nM.
